Consider seven compounds from patent US20230372307A1, “COMBINATION THERAPY USING BAX ACTIVATOR AGENT” (Albert Einstein College of Medicine, priority 2020, published 2023).

Like-named read-outs stand apart in the source and are kept apart here.

For one data set, the system named is SU-DHL5. Description: Cell viability assay (CellTiter-Glo) in SU-DHL5. Type of data set: cell-based. The settings on record: Homo sapiens. How it is done:
(§1) CELL VIABILITY ASSAY. […] Cell viability was assayed at 72 hrs by addition of CellTiter-Glo Assay reagents according to the manufacturer's protocol (Promega), and luminescence measured using a F200 PRO microplate reader (TECAN). […] Excluding high-throughput drug screenings, viability assays were performed in at least triplicate and the data normalized to 1% vehicle-treated control wells. IC50 values were determined by nonlinear regression analysis using Prism software (Graphpad). Dilutions of compounds was performed using a TECAN D300e Digital Dispenser from 10 mM stocks. The BLISS calculation was determined using the Combenefit program as previously described by Di Veroli et al., Bioinformatics.

The next data set deals with Calu-6 BAX KO cells. Briefly: Viability and caspase 3/7 in WT and CRISPR/Cas9 BAX KO Calu-6 cells. Type of data set: cell-based, human. The protocol:
as §1
Assays were performed at least in triplicate.

Another data set addresses T1, BAX (Homo sapiens, UniProt Q07812).
T1 construct: serial dilutions of full-length BAX; made in house; host or cells: Escherichia coli
Description: BIM SAHB-BAX competition fluorescence polarization assay (FPA). Type of data set: binding. Particulars: FITC-BIM SAHBA2 50 nM, BAX 500 nM. How it is done:
PRODUCTION OF RECOMBINANT BAX PROTEIN. […] BAX wild type was purified by size-exclusion chromatography in a buffer containing 20 mM HEPES pH 7.2, 150 mM KC1, 1 mM DTT. Superdex 75 10/300 GL and 200 10/300 GL (GE Healthcare) columns were used.
FLUORESCENCE POLARIZATION BINDING As SAYS. […] Firstly, direct binding isotherms were generated by incubating FITC-BIM SAHBA2 (50 nM) with serial dilutions of full-length BAX and fluorescence polarization was measured at 20 min on a F200 PRO microplate reader (TECAN). Subsequently, in competition assays, a serial dilution of small-molecule or acetylated BIM SAHBA2 (Ac-BIM SAHB) was combined with FITC-BIM SAHBA2 (50 nM), followed by the addition of recombinant protein at EC75 concentration, as determined by the direct binding assay (BAX: 500 nM). EC50 and IC50 values were calculated by nonlinear regression analysis of competitive binding curves using Graphpad Prism software.

The next data set deals with OCI-AML3. Description: Cell viability (CellTiter-Glo), OCI-AML3. Type of data set: cell-based, human. The settings on record: OCI-AML3, 72 hrs. The protocol:
as §1

A further data set has as its system SW480. Description: Cell viability (CellTiter-Glo), SW480. Type of data set: cell-based, human. The settings on record: SW480, 72 hrs. How it is done:
as §1

A further data set deals with COLO230. Description: Cell viability (CellTiter-Glo), COLO230. Type of data set: cell-based, human. The settings on record: COLO230, 72 hrs. The protocol:
as §1

A further data set concerns U937. Description: Cell viability (CellTiter-Glo), U937. Type of data set: cell-based, human. The settings on record: U937, 72 hrs. The protocol: as §1
The subject of another data set is solid tumor cell lines. Briefly: Cell viability, solid tumor cell lines of the 46-line panel. Type of data set: cell-based. Particulars: Homo sapiens; 72 hrs, solid tumor cell lines; read-out: mean cell viability IC50. How it is done: as §1
Another data set relates to SW480 xenograft. Description: SW480 tumor xenograft efficacy and pharmacodynamic study. Type of data set: in vivo, nu/nu nude mice. The settings on record: 200 mg/kg BTSA1.2, 100 mg/kg Navitoclax, oral daily. The source says:
TUMOR XENOGRAFT STUDIES. 6-8 weeks old nu/nu nude male mice were purchased from Charles River. […] For efficacy the efficacy study, treatments started once tumors reached a volume of ˜200 mm^3. […] Body weight of mice were monitored during treatment. For the pharmacodynamic study, treatments started once tumors reached a volume of ˜400 mm^3, after 3 days of daily treatment mice were euthanized and tumors were collected for analysis. Ex-Vivo BHS PROFILING. SW480 xenograft vehicle and combination treated tumors, and COLO-1 and COLO-2 PDX tumors were analyzed by BH3 profiling under basal conditions. Single cells from tumors were isolated by mechanically pass them through a […] strainer filter with cold PBS. SW480 xenograft tumors: […] PDX tumors: […] Single cell suspensions were prepared in 1:1 JC-1-MEB buffer, as previously described, and were kept at room temperature for 10 min to allow for cell permeabilization and dye equilibration. After adding the cells to the 384-well plate, 2.0×10^4 cells/well, fluorescence was measured at 590 nm emission 545 nm excitation using the M1000 microplate reader (TECAN) at 30° C. every 15 min for a total of 2 hrs.

The target in the next data set is T2, BAX:BCL-XL complexes (Homo sapiens, UniProt Q07812).
T2 construct: endogenous in cells; host or cells: BxPC-3, SW480, Calu-6
T2 sequence (Q07812 whole entry, one chain of several): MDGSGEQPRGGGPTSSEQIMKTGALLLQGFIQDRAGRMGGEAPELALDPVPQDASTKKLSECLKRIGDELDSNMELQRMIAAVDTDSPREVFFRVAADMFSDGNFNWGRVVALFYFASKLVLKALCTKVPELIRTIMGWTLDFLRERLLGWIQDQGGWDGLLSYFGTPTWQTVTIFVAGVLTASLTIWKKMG
Description: BAX co-immunoprecipitation and immunoblotting. Type of data set: cell-based. The settings on record: 4 hrs treatment.

Data set [1] in a line: BTSA1.2 and Navitoclax combination in vivo toxicity study. On the set-up: species or system CD1-IGS mice. The settings on record: 200 mg/kg BTSA1.2, 100 mg/kg Navitoclax, oral daily for 7 days. The source says: 6-8 weeks old CD1-IGS male mice were purchased from Charles River. […] Mice were monitored daily; body weight and peripheral blood counts were monitored at the indicated days.

For data set [2] the following is noted: previously determined by Tse et al; cited from earlier work.
[3] abbreviates: SU-DHL-5, 72 h, read-out: Viability Inhibition- SU- DHL5- IC50 (μM).
Setting [4] is: SU-DHL-5, 72 hrs, read-out: Viability Inhibition- SU- DHL5- IC50.

T1 sequence (Q07812 whole entry): as the sequence (Q07812 whole entry, one chain of several) above
Description for BAX:BCL-XL complexes: Protein lysates were obtained by cell lysis in 0.2% NP-40 buffer (50 mM Tris-HCL, 150 mM NaCl, 1 mM EDTA, 10% Glycerol, 0.2% NP-40, pH 7.50) Immunoprecipitation was performed in 600 mL of 400 μg of proteins, which was precleared by centrifugation followed by exposure to 12 μL (50% slurry) protein A/G beads (Santa Cruz) at 4° C. for 30 min. […] Samples were then exposed to 20 μL (50% slurry) protein A/G beads (Santa Cruz) at 4° C. for 2 hrs and later centrifuged and washed three times with 0.2% NP-40 buffer and boiled in loading buffer (Life Technologies). […] For visualization of proteins with Odyssey Infrared Imaging System (LI-COR Biosciences) membranes were blocked in Odyssey Blocking Buffer (LI-COR Biosciences). Primary antibodies were incubated overnight at 4° C. in a 1:1,000 dilution. After washes, membranes were incubated with an IRdye800-conjugated goat anti-rabbit IgG or IRdye800-conjugated goat anti-mouse IgG secondary antibodies (LI-COR Biosciences) in a 1:10,000 and 1:20,000 dilution, respectively.
After 2 hr, FBS was supplemented to a final concentration of 10%. […] The supernatants were isolated by centrifugation at 15,000×g for 10 min and the mitochondrial pellets solubilized in NP-40 lysis buffer (50 mM Tris-HCL pH 7.4, 150 mM NaCl, 5 mM MgCl2, 1 Mm EGTA, 10% Glycerol, 0.2% NP-40). […]

As to `O=C1/C(=N\Nc2nccs2)C(c2ccccc2)=NN1c1nc(-c2ccccc2)cs1` [BTSA1], the IC50 in the data set with SU-DHL5 (setting [3]) came to 0.4 µM.

With `CN[C@@H]1C[C@H]2O[C@@](C)([C@@H]1OC)n1c3ccccc3c3c4c(c5c6ccccc6n2c5c31)C(=O)NC4` [staurosporine], the “sensitivity of Calu-6 cells lacking BAX expression” value in the data set on Calu-6 BAX KO cells is on record as “still sensitive”.

Take `CC1=NN(c2nc(-c3ccccc3)cs2)C(=O)C1=NNc1nccs1` [Compound 3]: the results for the half-maximal inhibitory concentration (IC50) on BAX and with SU-DHL5 (setting [4]) were 2.38 µM and > 25 µM, respectively.

In the case of `O=C(O)c1cccc(NN=C2C(=O)N(c3nc(-c4ccccc4)cs3)N=C2c2ccccc2)c1` [Compound 5], the 50% inhibitory concentration (IC50) on BAX was determined as 0.497 µM; with SU-DHL5 (setting [3]), 2.8 µM.

In the case of `Cc1c(-c2ccc(N3CCc4cccc(C(=O)Nc5nc6ccccc6s5)c4C3)nc2C(=O)O)cnn1CC12CC3CC(CC(C3)C1)C2` [Compound A-1331852], the “single agent effect on cell viability” value is recorded as “moderately potent as single agent” with OCI-AML3, “potent” in the data set with SW480, “not effective” in the data set with COLO230 and “moderately potent as single agent” in the data set with U937.

Regarding `CC1(C)CCC(c2ccc(Cl)cc2)=C(CN2CCN(c3ccc(C(=O)NS(=O)(=O)c4ccc(N[C@H](CCN5CCOCC5)CSc5ccccc5)c(S(=O)(=O)C(F)(F)F)c4)cc3)CC2)C1` [Navitoclax, 4-(4-{[2-(4-Chlorophenyl)-5,5-dimethyl-1-cyclohexen-1-yl]methyl}-1-pipera-zinyl)-N-[(4-{[(2R)-4-(4-morpholinyl)-1-(phenylsulfanyl)-2-butanyl]amino}-3-[(trifluoromethyl)sulfonyl]phenyl)sulfonyl]benzamide, reference compound], in the data set with SW480, the “single agent effect on cell viability” value is reported as “resistant”. Also, the IC50 in the data set with solid tumor cell lines was > 10 µM. In addition, the tumor growth result in the data set on SW480 xenograft was “no significant efficacy in reducing tumor growth”. In addition, on BAX:BCL-XL complexes, the “BAX:BCL-XL complexes by BAX co-immunoprecipitation” value is reported as “disrupted BAX:BCL-XL complexes”. The “body weight, blood counts and organs” value in data set [1] is “lymphocyte, white blood cell and platelet counts reached levels below normal counts upon a single treatment”. For the same compound, the MTD in [2] is given as 100 mg/kg/po.

`CCOc1ccccc1NN=C1C(=O)N(c2nc(-c3ccccc3)cs2)N=C1C` [BAM7, reference compound]: in the data set on SU-DHL5 (setting [4]), the IC50 was > 25 µM.
